pEC50: −log10 of the molar value.
Assays:
[1] = target: T1, N-formyl peptide receptor 2 (Homo sapiens, UniProt P25090)
T1 sequence (P25090 whole entry): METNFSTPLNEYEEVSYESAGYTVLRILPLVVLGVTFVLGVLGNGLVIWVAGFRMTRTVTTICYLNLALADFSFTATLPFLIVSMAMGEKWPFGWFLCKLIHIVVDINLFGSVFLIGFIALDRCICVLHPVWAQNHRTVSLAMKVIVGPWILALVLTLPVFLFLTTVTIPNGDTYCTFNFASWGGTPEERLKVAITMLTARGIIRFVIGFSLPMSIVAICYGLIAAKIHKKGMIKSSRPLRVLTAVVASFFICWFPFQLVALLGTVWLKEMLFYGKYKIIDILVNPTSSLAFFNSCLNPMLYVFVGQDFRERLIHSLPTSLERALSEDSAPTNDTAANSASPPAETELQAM

fMet-Leu-Phe receptor = target: T2, fMet-Leu-Phe receptor (Homo sapiens, UniProt P21462)
T2 sequence (P21462 whole entry): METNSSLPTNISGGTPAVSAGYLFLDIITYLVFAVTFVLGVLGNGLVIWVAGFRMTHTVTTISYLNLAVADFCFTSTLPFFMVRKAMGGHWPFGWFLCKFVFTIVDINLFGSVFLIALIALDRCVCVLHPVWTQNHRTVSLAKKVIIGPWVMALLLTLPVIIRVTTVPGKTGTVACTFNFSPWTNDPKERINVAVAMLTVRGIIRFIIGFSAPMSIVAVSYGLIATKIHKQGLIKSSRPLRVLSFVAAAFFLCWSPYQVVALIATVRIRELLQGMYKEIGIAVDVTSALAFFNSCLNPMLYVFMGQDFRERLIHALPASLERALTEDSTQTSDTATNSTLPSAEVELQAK

Row | pEC50 [1] | pEC50 (fMet-Leu-Phe receptor) | SMILES
1 | 7.36 | 7.55 | COc1ccc(-n2cc(-c3nc4ccccc4s3)nc2NC(=O)c2ccc(OC(F)F)cc2)cc1 [WO2022076764, Example 23]
2 | 6.96 | 8.05 | COc1ccc(-n2cc(-c3nccs3)nc2NC(=O)c2ccc(OC(F)F)cc2)cc1 [WO2022076764, Example 24]
3 | 7.33 | 8.22 | COc1cc(F)c(-n2cc(-c3ccccc3F)nc2NC(=O)c2ccc(OC(F)F)cc2)c(F)c1 [WO2022076764, Example 25]
4 | 6.40 | 7.14 | COc1ccc(-n2cc(-c3nc4cc(Cl)ccc4o3)nc2NC(=O)c2ccc(OC(F)F)cc2)cc1 [WO2022076764, Example 26]
5 | 6.18 | 7.26 | COc1ccc(-n2cc(C3CCCCC3)nc2NC(=O)c2ccc(OC(F)F)cc2)cc1 [WO2022076764, Example 27]
6 | 5.99 | 6.15 | COc1ccc(-n2cc(-c3ccccn3)nc2NC(=O)c2ccc(OC(F)F)cc2)cc1 [WO2022076764, Example 28]
7 | 7.49 | 7.82 | CCOC(=O)c1cc(-c2cn(-c3ccc(OC)cc3)c(NC(=O)c3ccc(OC(F)F)cc3)n2)on1 [WO2022076764, Example 29]
8 | 7.00 | 8.05 | CCOC(=O)c1cn(-c2ccc(OC)cc2)c(NC(=O)c2ccc(OC(F)F)cc2)n1 [WO2022076764, Example 30]
9 | < 5.00 | 6.49 | COc1ccc(-n2cc(C34CC5CC(CC(C5)C3)C4)nc2NC(=O)c2ccc(OC(F)F)cc2)cc1 [WO2022076764, Example 31]
10 | 6.96 | 7.74 | COc1ccc(-n2cc(C(C)(C)C)nc2NC(=O)c2ccc(OC(F)F)cc2)cc1 [WO2022076764, Example 32]
11 | 6.03 | 7.41 | COc1cc(F)c(-n2cc(-c3ccccc3F)nc2NC(=O)c2ccc(OC(F)F)cc2)c(F)c1 [WO2022076764, Example 33]
12 | 6.92 | 7.80 | COc1cc(F)c(-n2cc(-c3ccnc(Cl)c3)nc2NC(=O)c2ccc(OC(F)F)cc2)c(F)c1 [WO2022076764, Example 34]
13 | 5.85 | 7.00 | COc1cc(F)c(-n2cc(CC(C)C)nc2NC(=O)c2ccc(OC(F)F)cc2)c(F)c1 [WO2022076764, Example 35]
14 | 6.49 | 7.51 | COc1cc(F)c(-n2cc(-c3ccc(F)c(F)c3)nc2NC(=O)c2ccc(OC(F)F)cc2)c(F)c1 [WO2022076764, Example 36]
15 | 6.10 | 7.80 | COc1cc(F)c(-n2cc(C3CC3)nc2NC(=O)c2ccc(OC(F)F)cc2)c(F)c1 [WO2022076764, Example 37]
16 | 6.21 | 7.82 | CCOC(=O)c1cn(-c2c(F)cc(OC)cc2F)c(NC(=O)c2ccc(OC(F)F)cc2)n1 [WO2022076764, Example 38]
17 | 6.00 | 7.68 | CCc1cn(-c2c(F)cc(OC)cc2F)c(NC(=O)c2ccc(OC(F)F)cc2)n1 [WO2022076764, Example 39]
18 | 6.00 | 7.96 | COc1cc(F)c(-n2cc(-c3nccs3)nc2NC(=O)c2ccc(OC(F)F)cc2)c(F)c1 [WO2022076764, Example 40]
19 | 6.64 | 7.59 | COc1cc(F)c(-n2cc(C3CCOCC3)nc2NC(=O)c2ccc(OC(F)F)cc2)c(F)c1 [WO2022076764, Example 41]
20 | 7.24 | 7.32 | COc1cc(F)c(-n2cc(C(F)(F)C(F)(F)F)nc2NC(=O)c2ccc(OC(F)F)cc2)c(F)c1 [WO2022076764, Example 42]
21 | 7.40 | 8.00 | COc1cc(F)c(-n2cc(C(F)(F)F)nc2NC(=O)c2ccc(OC(F)F)cc2)c(F)c1 [WO2022076764, Example 43]
22 | 6.43 | 7.32 | COc1cc(F)c(-n2cc(C(=O)NCc3cc[nH]n3)nc2NC(=O)c2ccc(OC(F)F)cc2)c(F)c1 [WO2022076764, Example 44]
23 | 6.15 | 7.85 | COc1ccc(-n2cc(C(=O)N3CCNCC3)nc2NC(=O)c2ccc(OC(F)F)cc2)cc1 [WO2022076764, Example 45]
24 | 6.68 | 7.57 | COc1ccc(-n2cc(C(=O)NCCCO)nc2NC(=O)c2ccc(OC(F)F)cc2)cc1 [WO2022076764, Example 46]
25 | 6.96 | 7.46 | COc1cc(F)c(-n2cc(C(=O)NCc3cccnc3)nc2NC(=O)c2ccc(OC(F)F)cc2)c(F)c1 [WO2022076764, Example 47]

Row | pEC50 [1] | pEC50 (fMet-Leu-Phe receptor) | SMILES
26 | 6.22 | 6.96 | COc1cc(F)c(-n2cc(C(=O)NCc3ccncc3)nc2NC(=O)c2ccc(OC(F)F)cc2)c(F)c1 [WO2022076764, Example 48]
27 | 6.12 | 7.05 | COc1cc(F)c(-n2cc(C(=O)NCC3CCC(O)CC3)nc2NC(=O)c2ccc(OC(F)F)cc2)c(F)c1 (stereo not given) [WO2022076764, Example 49]
28 | < 5.00 | 7.11 | COc1cc(F)c(-n2cc(C(=O)N3CCC[C@H]3CO)nc2NC(=O)c2ccc(OC(F)F)cc2)c(F)c1 [WO2022076764, Example 50]
29 | 5.54 | 7.08 | COc1cc(F)c(-n2cc(C(=O)N3CCCC(O)C3)nc2NC(=O)c2ccc(OC(F)F)cc2)c(F)c1 (stereo not given) [WO2022076764, Example 51]
30 | < 5.00 | 7.20 | COc1cc(F)c(-n2cc(C(=O)N3CCC(O)CC3)nc2NC(=O)c2ccc(OC(F)F)cc2)c(F)c1 [WO2022076764, Example 52]
31 | 5.39 | 6.89 | COc1cc(F)c(-n2cc(C(=O)NCCO)nc2NC(=O)c2ccc(OC(F)F)cc2)c(F)c1 [WO2022076764, Example 53]
32 | < 5.00 | 6.49 | COc1cc(F)c(-n2cc(C(=O)N3CCOCC3)nc2NC(=O)c2ccc(OC(F)F)cc2)c(F)c1 [WO2022076764, Example 54]
33 | < 5.00 | 6.55 | COc1cc(F)c(-n2cc(C(=O)N3CCN(C)CC3)nc2NC(=O)c2ccc(OC(F)F)cc2)c(F)c1 [WO2022076764, Example 55]
34 | 6.96 | 7.05 | COc1cc(F)c(-n2cc(C(=O)NCc3cnc(C)cn3)nc2NC(=O)c2ccc(OC(F)F)cc2)c(F)c1 [WO2022076764, Example 56]
35 | 5.72 | 6.92 | COc1cc(F)c(-n2cc(C(=O)N3CC[C@H](O)C3)nc2NC(=O)c2ccc(OC(F)F)cc2)c(F)c1 [WO2022076764, Example 57]
36 | 5.47 | 6.77 | COc1cc(F)c(-n2cc(C(=O)N3CCNC(=O)C3)nc2NC(=O)c2ccc(OC(F)F)cc2)c(F)c1 [WO2022076764, Example 58]
37 | 5.66 | 7.09 | COc1cc(F)c(-n2cc(C(=O)N3CCC(CO)C3)nc2NC(=O)c2ccc(OC(F)F)cc2)c(F)c1 (stereo not given) [WO2022076764, Example 59]
38 | 5.85 | 7.25 | COc1cc(F)c(-n2cc(C(=O)NCCCO)nc2NC(=O)c2ccc(OC(F)F)cc2)c(F)c1 [WO2022076764, Example 60]
39 | < 5.00 | 6.89 | COc1cc(F)c(-n2cc(C(=O)N3CCNCC3)nc2NC(=O)c2ccc(OC(F)F)cc2)c(F)c1 [WO2022076764, Example 61]
40 | 6.08 | 7.49 | COc1cc(F)c(-n2cc(C(=O)Nc3cn[nH]c3)nc2NC(=O)c2ccc(OC(F)F)cc2)c(F)c1 [WO2022076764, Example 62]
41 | 6.15 | 8.00 | COc1cc(F)c(-n2cc(C3CCNCC3)nc2NC(=O)c2ccc(OC(F)F)cc2)c(F)c1 [WO2022076764, Example 63]
42 | 6.68 | 7.96 | COc1ccc(-n2cc(C3CCCNC3)nc2NC(=O)c2ccc(OC(F)F)cc2)cc1 (stereo not given) [WO2022076764, Example 64]
43 | 6.49 | 7.09 | CCS(=O)(=O)N1CCC(c2cn(-c3c(F)cc(OC)cc3F)c(NC(=O)c3ccc(OC(F)F)cc3)n2)CC1 [WO2022076764, Example 65]
44 | 6.27 | 7.55 | CCNC(=O)N1CCC(c2cn(-c3c(F)cc(OC)cc3F)c(NC(=O)c3ccc(OC(F)F)cc3)n2)CC1 [WO2022076764, Example 66]
45 | 7.08 | 7.27 | COc1cc(F)c(-n2cc(C3CCN(C(=O)CCC(N)=O)CC3)nc2NC(=O)c2ccc(OC(F)F)cc2)c(F)c1 [WO2022076764, Example 67]
46 | 6.96 | 7.35 | COc1cc(F)c(-n2cc(C3CCN(C(=O)CCO)CC3)nc2NC(=O)c2ccc(OC(F)F)cc2)c(F)c1 [WO2022076764, Example 68]
47 | 5.52 | 7.07 | COc1cc(F)c(-n2cc(C(=O)N3CCC(CO)CC3)nc2NC(=O)c2ccc(OC(F)F)cc2)c(F)c1 [WO2022076764, Example 69]
48 | 6.01 | 7.51 | COc1cc(F)c(-n2cc(C(C)C)nc2NC(=O)c2ccc(OC(F)F)cc2)c(F)c1 [WO2022076764, Example 70]
49 | 5.89 | 7.34 | COc1cc(F)c(-n2cc(Cc3ccccc3)nc2NC(=O)c2ccc(OC(F)F)cc2)c(F)c1 [WO2022076764, Example 71]
50 | 6.33 | 7.66 | CCOC(=O)Cc1cn(-c2c(F)cc(OC)cc2F)c(NC(=O)c2ccc(OC(F)F)cc2)n1 [WO2022076764, Example 72]

— BindingDB's records for patent WO2022076764 (BRISTOL-MYERS SQUIBB COMPANY, 2022)
